Assays:
Format in all cases: cell-based
[1] = system: primary human total T-cells; test: T-cell activation assessed by CD69 expression
Description: (§1) Peripheral blood mononuclear cells (PBMC) were obtained either: 1) by using Ficoll-Paque™ (GE Healthcare) for separation of peripheral blood hematopoietic cells from buffy coats of healthy human donors; or 2) directly from FeukoPak donations. Total human primary T-cells were isolated from the PMBCs utilizing negative selection with commercial kits following the manufacturer's protocol (Miltenyi Catalog #130-096-535 (i.e., cocktail of antibodies against surface markers CD14, CD15, CD16, CD19, CD34, CD36, CD56, CD123 and CD235a are incubated with the PBMCs before passing the samples by magnetic beads for removal of cells expressing those surface markers) or StemCells Catalog #17951) to yield >95% CD3+ cells as assessed by flow cytometry. For measurement of cell proliferation, cells were labeled with Cell Trace Violet (Invitrogen) following manufacturer's protocol prior to activation by stimulation with anti-CD3 antibody alone or in combination with anti-CD28 antibody. The Cbl-b inhibitor was added to 1×10^5 cells per well at multiple concentrations (e.g., 10 μM, 1.11 μM, or 0.123 μM) with a final DMSO concentration of <0.1%. The plate was incubated for one hour at 37° C. in 5% CO2. Following incubation with the Cbl-b inhibitor, primary human total T-cells were stimulated with either plate bound anti-CD3 antibody (OKT3) alone or plate bound anti-CD3 antibody (OKT3) with soluble anti-CD28 antibody (28.2) (Life Technologies). To prepare plates with plate bound anti-CD3 antibody (OKT3), 96-well round bottom tissue culture plates were coated with 100 μl of anti-CD3 antibody (OKT3) at 10 μg/mL for 4 hours at 37° C. 5% CO2 in phosphate buffered saline (PBS). The plates were washed with PBS prior to adding the cells with or without soluble anti-CD28 antibody (28.2) to each well at a final concentration of 5 μg/mL. Cells were stimulated for 48 hours prior to harvesting the cell free supernatant and staining the cell population for surface marker assessment by flow cytometry. Supernatants were analyzed for cytokine secretion (e.g., GM-CSF, IFNγ and TNFα) by ELISA (R&D Systems, Peprotech or Life Technologies) or Luminex multiplex kits (Procarta Life Technologies) following manufacturer's protocol. Cells were stained with anti-CD69 (BD Biosciences) to assess levels of surface markers of activation. Proliferation was measured by flow cytometry and data was analyzed with FlowJo v7.6.5 or v10. Readouts were reported as fold change over baseline. In some embodiments, baseline was the measurement obtained from total human T-cells stimulated with anti-CD3 antibody alone, wherein the cells were not incubated with a Cbl-b inhibitor. In some embodiments, baseline was the measurement obtained from total human T-cells stimulated with anti-CD3 antibody and anti-CD28 antibody, where the cells were not incubated with a Cbl-b inhibitor.
(§2) Cbl-b inhibitors were tested to determine their ability to induce or enhance secretion of cytokines from T-cells (e.g., GM-CSF, IFNγ and TNFα) and/or surface expression of cell surface markers on T-cells (e.g., CD69) that is indicative of T-cell activation. Cbl-b inhibitors were also tested to determine their ability to induce or enhance T-cell proliferation. Cbl-b inhibitors were tested for their effects on T-cell activation in the presence of costimulation and where conditions were suboptimal for priming.
(§3) Readouts for T-cell activation were reported as fold change over baseline. Baseline for this study was the measurement obtained from total human T-cells stimulated with anti-CD3 antibody alone or anti-CD3 antibody in combination with soluble anti-CD28 antibody, where the cells were not incubated with a Cbl-b inhibitor. For T-cells stimulated with anti-CD3/anti-CD28 or with anti-CD3 alone changes greater than 1,2-fold over baseline for % positive CD69 staining and greater than 2-fold over baseline for % total proliferating cells were considered a significant and positive response (Table 4a). […]

[2] = system: primary human total T-cells; test: T-cell activation assessed by cytokine secretion (GM-CSF, IFNγ, TNFα)
Description: as §1, §2, §3

[3] = system: primary human total T-cells; test: T-cell activation assessed by cell proliferation (Cell Trace Violet)
Description: as §1, §2, §3

[4] = CD3/CD28 stimulation, CD4 T-cells, read-out: % CD69+ (CD4)
[5] = CD3/CD28 stimulation, CD8 T-cells, read-out: % CD69+ (CD8)
[6] = CD3 alone stimulation, CD4 T-cells, read-out: % CD69+ (CD4)
[7] = CD3 alone stimulation, CD8 T-cells, read-out: % CD69+ (CD8)
[8] = CD3/CD28 stimulation, read-out: GM-CSF secretion
[9] = CD3/CD28 stimulation, read-out: IFNγ secretion
[10] = CD3/CD28 stimulation, read-out: TNFα secretion
[11] = CD3 alone stimulation, read-out: GM-CSF secretion
[12] = CD3 alone stimulation, read-out: IFNγ secretion
[13] = CD3 alone stimulation, read-out: TNFα secretion
[14] = CD3/CD28 stimulation, CD4 T-cells, read-out: % CP (cell proliferation) (CD4)
[15] = CD3/CD28 stimulation, CD8 T-cells, read-out: % CP (cell proliferation) (CD8)
[16] = CD3 alone stimulation, CD8 T-cells, read-out: % CP (cell proliferation) (CD8)

Structure (SMILES) | fold induction at 1.11 µM [1, 4] | fold induction at 10 µM [1, 4] | fold induction at 1.11 µM [1, 5] | fold induction at 10 µM [1, 5] | fold induction at 1.11 µM [1, 6] | fold induction at 10 µM [1, 6] | fold induction at 1.11 µM [1, 7] | fold induction at 10 µM [1, 7] | fold induction at 1.11 µM [2, 8] | fold induction at 1.11 µM [2, 9] | fold induction at 1.11 µM [2, 10] | fold induction at 10 µM [2, 8] | fold induction at 10 µM [2, 9] | fold induction at 10 µM [2, 10] | fold induction at 1.11 µM [2, 11] | fold induction at 1.11 µM [2, 12] | fold induction at 1.11 µM [2, 13] | fold induction at 10 µM [2, 11] | fold induction at 10 µM [2, 12] | fold induction at 10 µM [2, 13] | other results
C[C@H](Cc1nncn1C)c1cccc(NC(=O)c2cccc(C(F)(F)F)n2)c1 [Compound 183a, (R)-N-(3-(1-(4-methyl-4H-1,2,4-triazol-3-yl)propan-2-yl)phenyl)-6-(trifluoromethyl)picolinamide] | 1.2 to 1.4 | 1.4 to 1.6 | 1.2 to 1.4 | 1.2 to 1.4 | 1.4 to 1.6 | > 1.6 | 1.2 to 1.4 | 1.4 to 1.6 | 2.01 to 4 | 2.01 to 3 | 2.01 to 4 | > 4 | > 4 | 2.01 to 4 | 1.51 to 2 | 2.01 to 3 | ≤ 1.5 | 2.01 to 4 | > 4 | 1.51 to 2 | fold induction at 1.11 µM [3, 14]: 3.01 to 4; fold induction at 10 µM [3, 14]: > 4; fold induction at 1.11 µM [3, 15]: 2.01 to 3; fold induction at 10 µM [3, 15]: > 4; fold induction at 1.11 µM [3, 16]: 3.01 to 4; fold induction at 10 µM [3, 16]: > 4
Cc1cc(C(=O)Nc2cccc([C@H](C)Cc3nncn3C)c2)nc(C2CC2)n1 [Compound 195, (R)-2-cyclopropyl-6-methyl-N-(3-(1-(4-methyl-4H-1,2,4-triazol-3-yl)propan-2-yl)phenyl)pyrimidine-4-carboxamide] | ≤ 1.2 | > 1.6 | ≤ 1.2 | 1.2 to 1.4 | ≤ 1.2 | > 1.6 | ≤ 1.2 | 1.4 to 1.6 | > 4 | 2.01 to 3 | 2.01 to 4 | > 4 | > 4 | > 4 | 2.01 to 4 | 2.01 to 3 | 1.51 to 2 | 2.01 to 4 | > 4 | 1.51 to 2 | fold induction at 1.11 µM [3, 14]: < 2; fold induction at 10 µM [3, 14]: > 4; fold induction at 1.11 µM [3, 15]: < 2; fold induction at 10 µM [3, 15]: > 4; fold induction at 1.11 µM [3, 16]: < 2; fold induction at 10 µM [3, 16]: > 4
C[C@H](Cc1nncn1C)c1cccc(N2Cc3c(cccc3C(F)(F)F)C2=O)c1 [Compound 255a, (R)-2-(3-(1-(4-methyl-4H-1,2,4-triazol-3-yl)propan-2-yl)phenyl)-4-(trifluoromethyl)isoindolin-1-one] | ≤ 1.2 | 1.2 to 1.4 | ≤ 1.2 | 1.2 to 1.4 | ≤ 1.2 | ≤ 1.2 | ≤ 1.2 | ≤ 1.2 | ≤ 1.5 | 3.01 to 4 | ≤ 1.5 | 1.51 to 2 | > 4 | 1.51 to 2 | ≤ 1.5 | < 2 | ≤ 1.5 | ≤ 1.5 | < 2 | ≤ 1.5 | fold induction at 1.11 µM [3, 14]: < 2; fold induction at 10 µM [3, 14]: 3.01 to 4; fold induction at 1.11 µM [3, 15]: < 2; fold induction at 10 µM [3, 15]: 2.01 to 3; fold induction at 1.11 µM [3, 16]: < 2; fold induction at 10 µM [3, 16]: < 2
C[C@H](Cc1nncn1C)c1cccc(NC(=O)c2n[nH]c3c2CCC3)c1 [Compound 313, (R)-N-(3-(1-(4-Methyl-4H-1,2,4-triazol-3-yl)propan-2-yl)phenyl)-1,4,5,6-tetrahydrocyclopenta[c]pyrazole-3-carboxamide] | 1.4 to 1.6 | 1.2 to 1.4 | 1.2 to 1.4 | 1.2 to 1.4 | > 1.6 | 1.2 to 1.4 | 1.4 to 1.6 | ≤ 1.2 | ≤ 1.5 | < 2 | ≤ 1.5 | 2.01 to 4 | 2.01 to 3 | 2.01 to 4 | ≤ 1.5 | 2.01 to 3 | ≤ 1.5 | 1.51 to 2 | < 2 | ≤ 1.5 | fold induction at 1.11 µM [3, 14]: > 4; fold induction at 10 µM [3, 14]: > 4; fold induction at 1.11 µM [3, 15]: 3.01 to 4; fold induction at 10 µM [3, 15]: 2.01 to 3; fold induction at 1.11 µM [3, 16]: > 4; fold induction at 10 µM [3, 16]: 2.01 to 3
